# pIC50: −log10 of the molar value. Values joined by “and” are separate entries in the source; they are usually repeats but may differ in a detail not shown here. Identical values can stand only once.
# Molecular target: Genome polyprotein (dengue virus type 2, UniProt P29990)
# Type: functional, Thailand/16681/1984
# Genome polyprotein, sequence (P29990 1346-1475 limits assumed): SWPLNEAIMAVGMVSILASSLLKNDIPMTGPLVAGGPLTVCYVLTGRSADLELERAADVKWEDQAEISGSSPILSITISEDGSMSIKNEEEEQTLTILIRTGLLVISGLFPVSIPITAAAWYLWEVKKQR
# Genome polyprotein, sequence (P29990 1476-2093 limits assumed): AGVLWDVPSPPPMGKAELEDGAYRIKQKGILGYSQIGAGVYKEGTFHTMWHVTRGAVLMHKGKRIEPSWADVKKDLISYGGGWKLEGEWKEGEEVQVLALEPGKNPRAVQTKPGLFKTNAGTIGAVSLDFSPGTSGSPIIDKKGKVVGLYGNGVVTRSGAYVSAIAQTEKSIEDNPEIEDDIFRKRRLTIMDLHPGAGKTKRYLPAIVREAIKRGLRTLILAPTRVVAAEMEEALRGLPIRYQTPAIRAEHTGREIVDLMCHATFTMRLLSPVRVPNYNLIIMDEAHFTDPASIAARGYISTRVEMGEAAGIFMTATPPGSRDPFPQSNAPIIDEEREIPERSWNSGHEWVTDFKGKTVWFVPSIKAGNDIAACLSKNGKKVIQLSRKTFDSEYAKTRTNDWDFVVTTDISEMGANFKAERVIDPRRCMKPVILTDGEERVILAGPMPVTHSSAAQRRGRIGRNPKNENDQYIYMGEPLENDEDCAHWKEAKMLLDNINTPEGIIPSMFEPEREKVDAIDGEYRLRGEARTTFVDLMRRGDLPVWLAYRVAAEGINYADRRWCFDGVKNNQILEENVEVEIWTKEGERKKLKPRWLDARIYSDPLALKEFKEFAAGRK
smiles,measurement,value
c1ccc2nc(SCc3cn4ccccc4n3)cnc2c1,pIC50,< 4.00
c1ccc(C2CCN(Cc3ccc4nccnc4c3)CC2)nc1,pIC50,< 4.00
c1cc2sccc2c(N2CCN(Cc3ccc4cn[nH]c4c3)CC2)n1,pIC50,< 4.00
O=C(O)c1sc2cccnc2c1Br,pIC50,< 4.00
FC(F)(F)c1nc(CNCc2cocn2)cs1,pIC50,< 4.00
Brc1cnn(C2CCN(Cc3csnn3)CC2)c1,pIC50,< 4.00
COc1ccc2c(O)nn(S(=O)(=O)c3ccc(C(=O)O)cc3)c2c1,pIC50,< 4.00
COc1nc(Cl)c(CSc2nc(C)co2)s1,pIC50,< 4.00
NC(=O)c1ccc(Cn2nnc(C=Cc3ccccc3)n2)cc1,pIC50,< 4.00
[O-][S@@+](Cc1nc(-c2cccs2)no1)c1cccs1,pIC50,< 4.00
Cc1nnnn1Cc1ncc(Br)s1,pIC50,< 4.00
O=C(O)c1c(Br)sc2nnsc12,pIC50,4.16
C[S@@+]([O-])c1nncn1Cc1ccc(Cl)s1,pIC50,< 4.00
O=S(=O)(CCOc1ccccc1)c1nccs1,pIC50,< 4.00
O=c1[nH]c(CSc2ccccc2Cl)nc2ccsc12,pIC50,< 4.00
Cc1nnc(CSc2ncnc3sccc23)o1,pIC50,< 4.00
c1nnc(SCCCSc2nncs2)s1,pIC50,< 4.00
O=c1ccn(Cc2cc(=O)n3ccccc3n2)c2ccsc12,pIC50,< 4.00
Brc1nc(Br)n(Cc2cscn2)n1,pIC50,< 4.00
Cn1ncnc1Sc1nc(C2CCCC2)ns1,pIC50,< 4.00
NCc1cccc(NC(=O)[C@@H](NC(=O)OCc2ccccc2)c2cccc(OC[C@H]3CCCO3)c2)c1,pIC50,< 4.00
O=c1c2ccccc2nnn1CSc1nnc(-c2ccccc2)o1,pIC50,< 4.00
COCc1nn(CC#Cc2ccc(Cl)cc2)c(=O)o1,pIC50,< 4.00
Cn1cc(N2CCN(Cc3c[nH]c4ccccc34)CC2)cn1,pIC50,< 4.00
[O-][S@@+](Cc1ncccn1)c1ncccc1Br,pIC50,< 4.00
COc1ccc(F)cc1-c1ccc(S(=O)(=O)Nc2ccc(Cl)cc2C(N)=O)cc1,pIC50,4.55
O=c1[nH]c2cccc(N3CCN(Cc4c[nH]c5ccccc45)CC3)c2[nH]1,pIC50,< 4.00
O=S(=O)(c1cccs1)N1CCN(CC=Cc2ccccc2)CC1,pIC50,< 4.00
CC(=O)N[C@H](C(=O)N[C@H]1C(=O)O[C@H]1C)c1ccc(OCc2ccccc2)cc1,pIC50,< 4.00
N#Cc1ccc(OCCn2nnn(-c3ccccc3)c2=O)cc1,pIC50,< 4.00
O=C(Nc1cc(Cl)cc(C(=O)Nc2ncc3n2CCNC3)c1)OCc1ccccc1,pIC50,< 4.00
NCc1cccc(NC(=O)[C@@H]2[C@@H]3CCCCC[C@@H]3[C@@H]2NC(=O)OCc2ccccc2)c1,pIC50,4.65
N#Cc1ccc(S(=O)(=O)CCn2nc(-c3ccco3)oc2=O)cc1,pIC50,< 4.00
NC(=O)c1cnccc1N1CCN(Cc2c[nH]c3ccccc23)CC1,pIC50,< 4.00
c1ccc(OC2CCN(Cc3c[nH]c4ccccc34)CC2)cc1,pIC50,< 4.00
NCc1cccc(NC(=O)[C@@H](NC(=O)OCc2ccccc2)c2cccc(OCC3CCC3)c2)c1,pIC50,4.36
CN(C)Cc1nnc(NC(=O)[C@@H](NC(=O)OCc2ccccc2)c2ccc(OCc3ccccc3)cc2)s1,pIC50,< 4.00
C[C@H]1CC[C@@](Cc2nc3ccccc3[nH]2)(C(=O)Nc2cccc(CN)c2)CC1,pIC50,< 4.00
Cc1nc(COc2ccc([C@@H](NC(=O)OCc3ccccc3)C(=O)Nc3cccc(CN)c3)cc2)cs1,pIC50,< 4.00
c1ccc2c(CN3CCN(c4ccncc4)CC3)c[nH]c2c1,pIC50,< 4.00
O=C(Nc1cc(Cl)cc(C(=O)Nc2nc3c(s2)CCNC3)c1)OCc1ccccc1,pIC50,< 4.00
COc1c(C)cc(C(=O)Nc2cccc(CN)c2)cc1NC(=O)OCc1ccccc1,pIC50,< 4.00
NCc1cccc(NC(=O)Cc2cc(Cl)cc(NC(=O)OCc3ccccc3)c2)c1,pIC50,4.07
COc1ccc(CN(C)C)cc1NC(=O)[C@@H](NC(=O)OCc1ccccc1)c1ccc(OCc2ccccc2)cc1,pIC50,< 4.00
Nc1ccc2ccc(B(O)O)cc2c1,pIC50,< 4.00
CC(C)(C)OC(=O)Nc1cccc2[nH]cc(CN3CCC(c4cscn4)CC3)c12,pIC50,< 4.00
COc1ccc(F)cc1-c1ccc(S(=O)(=O)Nc2cc(Cl)cc(C(=O)O)c2)cc1,pIC50,4.05
Brc1ccsc1CSc1cnn[nH]1,pIC50,< 4.00
NC(=O)c1cc(Cl)ccc1NS(=O)(=O)c1ccc(-c2ccc(F)cc2)cc1,pIC50,4.48
Cc1sc2nc(-c3cccs3)[nH]c(=O)c2c1C,pIC50,< 4.00
Clc1snnc1CN1CCC(c2nc3ccccc3o2)CC1,pIC50,< 4.00
O=C(Nc1ccc(Cl)cc1C(=O)Nc1cccc(C2CCNCC2)c1)OCc1ccccc1,pIC50,< 4.00
NCc1cccc(NC(=O)[C@@H](NC(=O)OCc2ccccc2)c2ccc(OC[C@H]3CCCCO3)cc2)c1,pIC50,< 4.00
O=C(Nc1cc(Cl)cc(C(=O)Nc2n[nH]c3c2CNC3)c1)OCc1ccccc1,pIC50,4.57
Brc1cccc2cn(Cc3ncccn3)nc12,pIC50,< 4.00
O=c1oc2cccnc2n1CC=Cc1ccccc1,pIC50,< 4.00
c1ccc2[nH]c(CC3CCN(Cc4nccs4)CC3)nc2c1,pIC50,< 4.00
Cn1c(Sc2nc3ccccc3o2)nc2sccc2c1=O,pIC50,< 4.00
O=C(Nc1cc(Cl)cc(C(=O)Nc2n[nH]c3c2CNC32CC2)c1)OCc1ccccc1,pIC50,4.17
O=C(Nc1cc(Cl)cc(C(=O)Nc2cccc(CO)c2)c1)OCc1ccccc1,pIC50,< 4.00
CN1CCC[C@H]1COc1cccc([C@@H](NC(=O)OCc2ccccc2)C(=O)Nc2cccc(CN)c2)c1,pIC50,< 4.00
Cc1ccc(CN)cc1-c1cccc([C@H](NC(=O)OCc2ccccc2)C(=O)Nc2cccc(CN)c2)c1,pIC50,4.20
O=C(NCc1ccco1)c1csc(Br)c1,pIC50,< 4.00
Cc1cc(NC(=O)OCc2ccccc2)cc(C(=O)Nc2cccc(CN)c2)c1C,pIC50,< 4.00
COc1cc(Br)ccc1[C@@H](NC(=O)OCc1ccccc1)C(=O)Nc1cccc(CN)c1,pIC50,4.08
CN(C)Cc1ccc(N2CCN(Cc3c[nH]c4ccccc34)CC2)nc1,pIC50,< 4.00
Nc1nc(S(=O)(=O)c2ccccc2)c(Cl)s1,pIC50,< 4.00
O=C(NCc1nccs1)c1sccc1Cl,pIC50,< 4.00
CC(C)(C)c1cc(CN2CCC(c3cscn3)CC2)n[nH]1,pIC50,< 4.00
CCNC(=O)Nc1cc(Cl)cc(C(=O)Nc2cccc(CN)c2)c1,pIC50,< 4.00
Cc1ccc(NC(=O)OC(C)(C)C)c2[nH]cc(CN3CCC(c4cscn4)CC3)c12,pIC50,< 4.00
O=C(Nc1cc(Cl)cc(C(=O)Nc2cnc3n2CCNC3)c1)OCc1ccccc1,pIC50,< 4.00
NCc1cccc(NC(=O)[C@@H]2CCC[C@@H](NC(=O)OCc3ccccc3)C2)c1,pIC50,< 4.00
CN(C)CCC(=O)N1CCC([C@@H](NC(=O)OCc2ccccc2)C(=O)Nc2cccc(CN)c2)CC1,pIC50,< 4.00
c1ccc(CC2CCN(Cc3c[nH]c4ccccc34)CC2)cc1,pIC50,< 4.00
O=C(N[C@@H](C(=O)Nc1n[nH]c2c1CNC21CC1)c1ccc(OCc2ccccc2)cc1)OCc1ccccc1,pIC50,< 4.00
c1cc(-c2nnc(NCc3nnn[nH]3)s2)no1,pIC50,< 4.00
O=c1ccc(-n2cncn2)nn1CC=Cc1ccccc1,pIC50,< 4.00
CCSc1nnc(SCCn2nc3ccccn3c2=O)s1,pIC50,< 4.00
Cn1nc(NC(=O)[C@@H](NC(=O)OCc2ccccc2)c2ccc(OCc3ccccc3)cc2)c2c1CNC2,pIC50,< 4.00
O=c1ccccn1-c1ncc(Br)cn1,pIC50,< 4.00
O=C(Nc1cc(Cl)cc(C(=O)Nc2cc3n(n2)CCNC3)c1)OCc1ccccc1,pIC50,< 4.00
Clc1cc(Cl)c2c(CN3CCC(c4cscn4)CC3)c[nH]c2c1,pIC50,< 4.00
NCc1cccc(NC(=O)[C@@H](NC(=O)OCc2ccccc2)c2cccc(-c3cncnc3)c2)c1,pIC50,< 4.00
O=c1c2cccn2cnn1Cc1cnc(Cl)s1,pIC50,< 4.00
Cc1nnsc1Cn1ccc(Br)n1,pIC50,< 4.00
O=c1c2ccccc2ncn1CCCn1cnc2ccccc2c1=O,pIC50,< 4.00
NCc1cccc(NC(=O)c2cc(Cl)cc(CNC(=O)OCc3ccccc3)c2)c1,pIC50,4.07
NCc1cccc(C(=O)Nc2cc(Cl)cc(NC(=O)OCc3ccccc3)c2)c1,pIC50,4.17
O=S1(=O)CCN(CC#Cc2ccc3sncc3c2)CC1,pIC50,< 4.00
c1ccc2c(CN3CC(c4cscn4)C3)c[nH]c2c1,pIC50,< 4.00
c1cc(-c2cc(CN3CCC(c4cscn4)CC3)n[nH]2)ccn1,pIC50,< 4.00
NCc1cccc(NC(=O)[C@@H](NC(=O)OCc2ccccc2)c2ccc(Br)c(Cl)c2)c1,pIC50,5.04 and 5.08
COC(=O)c1cc2scc(Br)c2[nH]1,pIC50,< 4.00
N#Cc1csc(CSc2nnc(C(F)(F)F)s2)n1,pIC50,< 4.00
C1=C(c2cccnc2)CN(Cc2c[nH]c3ccccc23)CC1,pIC50,< 4.00
O=C(O)c1cc(Cl)cc(NS(=O)(=O)c2ccc(-c3ccc(F)cc3)cc2)c1,pIC50,4.04
O=C(Nc1cc(Cl)cc(C(=O)Nc2nc3c(s2)CNC3)c1)OCc1ccccc1,pIC50,< 4.00
c1csc(CSc2nnc(Cn3cncn3)o2)c1,pIC50,< 4.00
O=C1O[C@H]2CCN(Cc3ccc(OCc4ccccc4)cc3)C[C@H]12,pIC50,< 4.00
FC(F)(F)c1nnc(COc2cncnc2)s1,pIC50,< 4.00
Cc1[nH]c2ccccc2c1CN1CCC(c2c[nH]c3ncccc23)CC1,pIC50,< 4.00
c1cnc2[nH]cc(C3CCN(Cc4c[nH]c5cnccc45)CC3)c2c1,pIC50,< 4.00
O=C(N[C@@H](C(=O)Nc1ncc([C@H]2CCCN2)s1)c1ccc(OCc2ccccc2)cc1)OCc1ccccc1,pIC50,< 4.00
NCc1cccc(S(=O)(=O)Cc2cc(Cl)cc(NC(=O)OCc3ccccc3)c2)c1,pIC50,< 4.00
NCc1cccc(NC(=O)c2cc(N)cc(NC(=O)OCc3ccccc3)c2)c1,pIC50,< 4.00
CN1CCc2nc(NC(=O)[C@@H](NC(=O)OCc3ccccc3)c3ccc(OCc4ccccc4)cc3)sc2C1,pIC50,< 4.00
CCN1CC[C@@H](COc2ccc([C@@H](NC(=O)OCc3ccccc3)C(=O)Nc3cccc(CN)c3)cc2)C1,pIC50,< 4.00
c1csc(-c2nnc(Sc3ncnc4sccc34)o2)c1,pIC50,< 4.00
Cn1nc(NC(=O)c2cc(Cl)cc(NC(=O)OCc3ccccc3)c2)c2c1CNC2,pIC50,4.05
c1ccc([C@H](NCc2c[nH]c3ccccc23)c2cccnc2)cc1,pIC50,< 4.00
CC[C@@H](NCc1c[nH]c2ccccc12)c1cccnc1,pIC50,< 4.00
NC[C@@H]1CN(c2cc(N3CC[C@H](N)C3)cc3c2COB3O)C(=O)O1,pIC50,< 4.00
O=C(O)c1cc(Cl)ccc1NS(=O)(=O)c1ccc(Nc2ccccc2F)nc1,pIC50,4.36
NCc1cccc(NC(=O)C[C@@H](NC(=O)OCc2ccccc2)c2ccc(Cl)c(Br)c2)c1,pIC50,4.91
c1ccc([C@@H]2C[C@H]3C[C@@H]2C[C@H]3NCc2n[nH]c3ccccc23)cc1,pIC50,< 4.00

# Source: ChEMBL document CHEMBL5604063, “ASAP - DENV-2 NS2B-NS3 protease fluorescence dose response” (2024)
